# Measurements taken from patent US20260048081A1, “COMBINED TREATMENT COMPOSITION FOR TUMOR TREATMENT AND COMBINED TREATMENT METHOD” (ADVACCINE (SUZHOU) BIOPHARMACEUTICALS CO., LTD., priority 2022, published 2026).
# Tests used:
# [1] = system: 4T1 breast cancer cell; type: in vivo; settings: 2 μg/kg cisplatin (CDDP alone printed 2 g/kg), 50 μg/mouse CpG, 50 μg/mouse R848
# [2] = system: B16-F10 mouse melanoma; assay: B16-F10 mouse melanoma model, small-volume tumors (Example 9); type: in vivo; settings: 4 mg/kg cisplatin, intraperitoneal injection, days 7, 14, 21
# Protocol: This example further explored the effect of cisplatin combined with CR108 adjuvant on mouse melanoma. A B16-F10 mouse melanoma model was constructed by subcutaneously inoculating tumor cells on the right side of the back of the mice proximal to the hip position at 3×10^5 cells/mouse, […]
# Specific mouse administration groups were as follows: (1) a PBS negative control group, (2) CDDP^Lo (2 μg/kg cisplatin), (3) CR108 (50 μg/mouse CpG1018 and 50 μg/mouse water-soluble R848), (4) CDDP^Lo+CR108 (2 μg/kg cisplatin, 50 μg/mouse CpG1018 and 50 μg/mouse water-soluble R848), (5) CDDP^Lo+C′ (2 μg/kg cisplatin and 50 μg/mouse CpG1018), (6) CDDP^Lo+R (2 μg/kg cisplatin and 50 μg/mouse water-soluble R848), and (7) CDDP^Hi (4 mg/kg cisplatin, regular cisplatin chemotherapeutic drug dose). Except for Group (7), which received a high dose of cisplatin by intraperitoneal injection, all other groups were administered by subcutaneous injection near the tumor. […]
# On day 4 after the last administration, mice were sacrificed, tumor tissues of the mice were separated and weighed using an analytical balance; the weights were recorded, and the tumors were photographed for recording. […]
# [3] = system: B16-F10 mouse melanoma; assay: Large-volume B16-F10 melanoma model, intratumoral injection: tumor volume and survival (Examples 10-13); type: in vivo
# Protocol: To establish a B16-F10 mouse melanoma model, the tumor cells were inoculated at 3×10^5 cells/mouse. Once the tumors reached an appropriate size with an average of about 200 mm^3, suitable mice were selected based on the tumor size and body weight and given drugs according to the following groups. […] Specific groups were as follows: Group G1, normal saline (NS) control group: mice were treated once a week; Group G2: mice received an intratumoral injection of CDDP, followed by an intratumoral injection of CR108 two days later, once a week; Group G3: for each administration cycle, mice first received an intratumoral injection of CDDP, followed by an intratumoral injection of CR108 two days later, which was repeated every other day, with four administrations constituting one cycle, and after a one-week interruption, the next administration cycle was repeated; and Group G4: after CDDP and CR108 were mixed, mice received an intratumoral injection of the mixture, twice a week. After the administration was completed according to the flowchart, the administration was stopped, and the tumor size and physiological states of the mice were monitored during this period. When the tumor volume of each mouse exceeded 2000 mm^3 for the first time or the body weight of the animal was less than 80% of the body weight before the first administration, it was considered an ethical death, and the animal was euthanized. The remaining mice continued to be observed.
# Experimental groups were as follows: (1) a normal saline control group, with the same administration protocol as that in Group G1 of Example 10; (2) CDDP^Hi+CR108 (at a cisplatin dose of 0.4 mg/kg), with the same administration protocol as that in Group G2 of Example 10 (qw); (3) CDDP^Lo+CR108 (at a cisplatin dose of 2 μg/kg), with the same administration protocol as that in Group G3 of Example 10 (qod); and (4) CDDP^Hi+CR108 (0.4 mg/kg cisplatin), with the same administration protocol as that in Group G3 of Example 10 (qod); the dose of CR108 used in each group was 50 μg/mouse CpG1018 and 50 μg/mouse water-soluble R848. […]
# [4] = system: BALB/c mouse spleen cells; assay: In vitro stimulation of mouse spleen cells to secrete TNF-α; type: cell-based; settings: FIG. 9; stimulated 18-20 h; research-grade versus pharmaceutical grade reagent
# Protocol: Drug preparation: The preparation and use of the research-grade reagents CpG1826 and R848 (water soluble) were the same as those in Example 1; the pharmaceutical agent R848 (lipid soluble) was dissolved in DMSO to prepare a 10 mg/mL stock solution, 0.1 mL of the stock solution was taken for each administration, the volume was brought to 1 mL, and a 1 mg/mL solution was prepared; CpG1018 was prepared at 1 mg/ml with PBS before each administration.
# The spleens of three blank BABL/c mice were added to a 30 mm cell culture dish, 1640 medium was added, and the resulting mixture was ground, filtered through a copper screen, and centrifuged at 1500 rpm for 3 min. The supernatant was discarded, 2 mL of a red blood cell lysis buffer was added, and the samples were left to stand for 2 min, terminated with 4 mL of 1640+10% FBS, and centrifuged at 1500 rpm for 3 min. The supernatant was discarded, the samples were resuspended in 1640+10% FBS, and the cells were counted. The cells were plated in a 96-well cell culture plate at 2×10^6 cells/well, with 200 μL of culture medium per well. […] After the cells were stimulated for 18-20 h, the cell culture supernatant was collected, and the expression of cytokines in each 10^6 mouse spleen cells was determined by using a mouse TNF-α detection kit (purchased from NeoBioscience Technology Co., Ltd., Catalog No. EMC102a.96) according to the instructions.
SMILES,"tumor volume growth curve ([1]; Example 7, FIG. 12, 6 mice per group)","tumor weight ([1]; Example 7, FIG. 13, end of the experiment)",mouse death during the administration period [2],"tumor volume compared with the normal saline control group ([3]; Example 12, FIG. 31, day 28, CDDP 4 mg/kg once a week, CR108 G3 protocol, CDDP+CR108 0.4 mg/kg cisplatin G3 protocol)","day on which all mice were euthanized due to tumor volume exceeding 2000 mm^3 ([3]; Example 12, 4 mg/kg CDDP once a week) [days]","median survival time ([3]; Example 12, CDDP 4 mg/kg once a week, CR108 alone G3 protocol, CDDP+CR108 0.4 mg/kg CDDP, not counted on day 45, saline control 26 days) [days]",levels of TNF-α cytokines produced from mouse spleen cells stimulated in vitro [4]
"[NH2][Pt]([NH2])([Cl])[Cl] [CDDP, cisplatin]",grew rapidly,too large and overweight,One mouse,significantly lower than that in the normal saline control group,36,36,
CCOCc1nc2c(N)nc3ccccc3c2n1CC(C)(C)O [R848 (water soluble)],,,,,,,comparable
